Data published in ChEMBL document CHEMBL4184111, “Small molecule immuno-oncology therapeutic agents” (Bioorg Med Chem Lett, 2018).
Blank lines part the entries; values can stand above or below the compound they belong to.

What was measured:
[1] = target: Programmed cell death protein 1 (Homo sapiens, UniProt Q15116); test: Inhibition of His-tagged PD-L1 binding to PD-1-Ig (unknown origin) preincubated with PD-L1 for 15 mins followed by PD-1-Ig addition measured after 15 mins by HTRF binding assay
eIF-2-alpha kinase GCN2 = eIF-2-alpha kinase GCN2 (Homo sapiens, UniProt Q9P2K8); test: Inhibition of GCN2 (unknown origin) using GFP--fused eIF2alpha as substrate preincubated for 20 mins followed by substrate and ATP addition measured after 90 mins by TR-FRET assay
[2] = target: Tyrosine-protein kinase SYK (Homo sapiens, UniProt P43405); test: Inhibition of N-terminal GST-tagged human SYK expressed in baculovirus infected Sf9 insect cells using Biotin-Aha-Aha-KEDPDYEWPSAKK as substrate after 90 mins by flash plate assay
[3] = target: Mitogen-activated protein kinase kinase kinase kinase 1 (Homo sapiens, UniProt Q92918); test: Inhibition of N-terminal GST-tagged human HPK1 (1 to 346 residues) after 30 mins in presence of ATP by indirect ELISA
[4] = Inhibition of arginase (unknown origin); set-up: species or system Homo sapiens
[5] = target: T1, Arginase-2, mitochondrial (Homo sapiens, UniProt P78540); test: Inhibition of arginase 2 (unknown origin)
T1 sequence (P78540 whole entry): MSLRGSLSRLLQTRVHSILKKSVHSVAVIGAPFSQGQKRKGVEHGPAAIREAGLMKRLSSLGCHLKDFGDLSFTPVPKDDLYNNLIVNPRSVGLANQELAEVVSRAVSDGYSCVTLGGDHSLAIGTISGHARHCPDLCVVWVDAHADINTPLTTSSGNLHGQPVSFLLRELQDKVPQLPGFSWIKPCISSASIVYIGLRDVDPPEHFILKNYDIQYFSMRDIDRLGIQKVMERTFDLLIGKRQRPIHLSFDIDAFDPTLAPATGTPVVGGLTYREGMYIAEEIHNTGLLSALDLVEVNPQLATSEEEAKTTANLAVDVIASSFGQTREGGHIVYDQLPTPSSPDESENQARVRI

[6] = Half life in rat; type: ADME, organism-based; conditions: in vivo

Mitogen-activated protein kinase kinase kinase kinase 1, sequence (Q92918 whole entry, the tested form may be a part): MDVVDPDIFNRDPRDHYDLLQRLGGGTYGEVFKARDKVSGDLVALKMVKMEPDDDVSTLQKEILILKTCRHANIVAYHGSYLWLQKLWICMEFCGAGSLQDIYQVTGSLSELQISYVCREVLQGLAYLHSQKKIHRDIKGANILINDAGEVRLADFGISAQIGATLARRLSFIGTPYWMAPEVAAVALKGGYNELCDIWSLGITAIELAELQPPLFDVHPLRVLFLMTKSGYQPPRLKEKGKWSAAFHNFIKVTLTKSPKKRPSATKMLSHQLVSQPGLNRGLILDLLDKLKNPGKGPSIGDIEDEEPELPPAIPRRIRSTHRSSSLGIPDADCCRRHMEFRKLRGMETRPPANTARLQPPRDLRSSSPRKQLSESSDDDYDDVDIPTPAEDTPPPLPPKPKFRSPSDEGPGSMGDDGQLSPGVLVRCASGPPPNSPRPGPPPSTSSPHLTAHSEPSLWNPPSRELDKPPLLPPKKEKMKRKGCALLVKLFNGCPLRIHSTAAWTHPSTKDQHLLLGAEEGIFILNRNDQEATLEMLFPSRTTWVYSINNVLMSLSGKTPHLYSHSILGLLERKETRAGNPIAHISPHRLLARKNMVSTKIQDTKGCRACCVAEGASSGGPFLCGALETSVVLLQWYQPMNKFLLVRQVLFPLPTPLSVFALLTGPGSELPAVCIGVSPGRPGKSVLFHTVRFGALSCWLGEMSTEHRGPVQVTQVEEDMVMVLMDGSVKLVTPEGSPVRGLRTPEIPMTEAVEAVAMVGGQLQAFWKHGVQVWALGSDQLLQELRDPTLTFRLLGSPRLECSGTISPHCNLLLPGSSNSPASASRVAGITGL
eIF-2-alpha kinase GCN2, sequence (Q9P2K8 whole entry, the tested form may be a part): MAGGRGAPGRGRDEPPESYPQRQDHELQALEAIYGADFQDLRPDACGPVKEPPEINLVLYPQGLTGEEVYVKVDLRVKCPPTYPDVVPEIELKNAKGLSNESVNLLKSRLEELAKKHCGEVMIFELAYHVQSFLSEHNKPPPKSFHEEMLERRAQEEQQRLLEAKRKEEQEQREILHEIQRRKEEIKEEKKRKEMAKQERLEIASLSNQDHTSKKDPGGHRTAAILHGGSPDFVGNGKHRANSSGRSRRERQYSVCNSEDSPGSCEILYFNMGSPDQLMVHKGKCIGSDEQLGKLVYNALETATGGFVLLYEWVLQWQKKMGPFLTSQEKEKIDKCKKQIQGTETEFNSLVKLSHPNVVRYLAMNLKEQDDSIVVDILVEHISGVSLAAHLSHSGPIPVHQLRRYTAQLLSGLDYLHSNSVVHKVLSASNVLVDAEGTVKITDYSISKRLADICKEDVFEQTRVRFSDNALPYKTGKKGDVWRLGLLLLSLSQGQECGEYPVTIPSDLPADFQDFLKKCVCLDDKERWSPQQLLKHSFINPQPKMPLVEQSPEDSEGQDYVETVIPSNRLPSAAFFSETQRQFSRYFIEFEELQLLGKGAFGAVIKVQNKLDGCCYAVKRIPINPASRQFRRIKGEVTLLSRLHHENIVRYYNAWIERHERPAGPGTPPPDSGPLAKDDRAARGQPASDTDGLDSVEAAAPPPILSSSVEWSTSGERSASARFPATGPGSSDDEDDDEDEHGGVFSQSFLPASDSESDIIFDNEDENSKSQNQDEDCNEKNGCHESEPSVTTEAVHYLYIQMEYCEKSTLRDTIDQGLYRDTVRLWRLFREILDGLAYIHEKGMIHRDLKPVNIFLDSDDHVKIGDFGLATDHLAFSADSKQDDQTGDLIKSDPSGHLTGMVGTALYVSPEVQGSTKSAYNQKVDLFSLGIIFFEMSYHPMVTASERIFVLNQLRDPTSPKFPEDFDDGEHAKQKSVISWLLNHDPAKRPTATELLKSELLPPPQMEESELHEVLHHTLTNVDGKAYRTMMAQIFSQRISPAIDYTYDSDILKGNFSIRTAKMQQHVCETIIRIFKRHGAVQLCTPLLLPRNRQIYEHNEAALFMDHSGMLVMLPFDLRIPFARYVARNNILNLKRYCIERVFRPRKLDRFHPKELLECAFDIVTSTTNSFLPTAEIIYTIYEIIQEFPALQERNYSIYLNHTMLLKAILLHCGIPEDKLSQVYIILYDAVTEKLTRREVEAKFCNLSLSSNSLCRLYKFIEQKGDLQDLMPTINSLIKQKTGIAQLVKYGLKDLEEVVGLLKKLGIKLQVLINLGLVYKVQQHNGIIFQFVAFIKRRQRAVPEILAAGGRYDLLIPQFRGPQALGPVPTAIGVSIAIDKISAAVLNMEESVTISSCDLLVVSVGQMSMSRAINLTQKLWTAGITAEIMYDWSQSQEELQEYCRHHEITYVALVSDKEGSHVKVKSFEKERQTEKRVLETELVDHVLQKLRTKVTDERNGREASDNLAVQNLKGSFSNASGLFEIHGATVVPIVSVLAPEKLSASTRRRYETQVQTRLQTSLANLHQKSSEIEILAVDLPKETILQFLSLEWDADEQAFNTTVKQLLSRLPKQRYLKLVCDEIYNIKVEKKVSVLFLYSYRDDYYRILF
Programmed cell death protein 1, sequence (Q15116 whole entry, the tested form may be a part): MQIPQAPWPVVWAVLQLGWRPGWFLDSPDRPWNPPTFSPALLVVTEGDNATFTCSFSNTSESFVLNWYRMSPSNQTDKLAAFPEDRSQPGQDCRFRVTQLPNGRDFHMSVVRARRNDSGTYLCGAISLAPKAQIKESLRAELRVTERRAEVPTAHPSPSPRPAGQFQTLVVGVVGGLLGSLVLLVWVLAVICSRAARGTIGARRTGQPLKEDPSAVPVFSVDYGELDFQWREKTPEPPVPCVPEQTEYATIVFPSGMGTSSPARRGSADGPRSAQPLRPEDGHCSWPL

- IC50 (eIF-2-alpha kinase GCN2): 300 to 3000 nM
- IC50 [2]: 100 to 300 nM
Structure (SMILES): CC(C)C1(O)C(=O)Nc2cc(Nc3nc4c(-c5cnn(C)c5)nccn4n3)ccc21 (stereo not given)

- IC50 (eIF-2-alpha kinase GCN2): < 300 nM
Structure (SMILES): O[C@H]1CC[C@H](n2cc(Nc3ncc4nnn(-c5ccc(Cl)c(F)c5)c4n3)cn2)CC1

- IC50 [3]: < 50 nM
Structure (SMILES): CN1CCN(c2ccc3nc(-c4c(N)c5sccc5[nH]c4=O)[nH]c3c2)CC1

- IC50 [3]: < 50 nM
Structure (SMILES): CN1CCN(c2ccc3[nH]c(-c4c(N)c5ccsc5[nH]c4=O)nc3c2)CC1

Continued, compound first:

Structure (SMILES): C[C@H](O)[C@H](NC(=O)N[C@@H](CC(N)=O)c1nnc([C@@H](N)CO)s1)C(=O)O
- IC50 [1]: < 50 nM

Structure (SMILES): COc1cc(OCc2cccc(-c3ccccc3)c2C)cc(OC)c1CNCC1CC(=O)N1 (stereo not given)
- IC50 [1]: < 50 nM

Structure (SMILES): C[C@H](N)C(=O)N1C[C@H](CCCB(O)O)[C@](N)(C(=O)O)C1
- IC50 [4]: 98 nM

Structure (SMILES): N=C(NO)NCC[C@H](N)C(=O)O [NOR-NOHA]
- Ki [5]: 51 nM
- half-life [6]: 15 to 30 min
